The record followed here is patent publication US7230094B2, “Neutral sphingomyelinase antisense ribozyme and uses thereof” (priority 2001, dated 2007).

Holding throughout (assay type): cell-based, human
The test system of data set [1] is MG-63 cells. Description: Apoptosis by DAPI staining and counting of apoptotic cells. The following applies: for Increase in apoptosis compared to untreated cells: N-SMase-deficient (ribozyme) cells treated with C2 ceramide; for Increase in apoptosis assessed by DAPI staining: sham-transfected cells. The protocol: FIG. 6 depicts a quantitative analysis of the effects of TNF-α, C2-Ceramide and Fas-ligand on apoptosis in mutant (CC) and WT (MG-63) cells, as well as wild type/mock transfected cells. Cells were grown on glass cover slips and incubated for 24 hours with TNF-α (20 ng/ml), cell-permeable ceramide (C2-Ceramide) (10 ng/ml) or Fas-L (1 ng/ml). Cells were fixed and stained with DAPI and photographed at 50× magnification. Apoptotic cells were counted using a hemocytometer. The basal levels of apoptotic cells were: MG-63 (3%); L-3 (3%); and CC (2.8%). Errors bars indicate ±S.D. (N=2).
WT (MG-63), LacZ (L-3) and mutant (CC) cells were grown on glass cover slips and incubated for 24 hr with TNF-α (20 ng/ml), cell-permeable ceramide (C2-ceramide) (10 ng/ml) or Fas-L (1 ng/ml). Cells were fixed and stained with DAPI stain and photographed (50×). Apoptotic cells were counted using a hemocytometer and compared to total cell counts per field. Basal levels of apoptosis were 3% untransfected, 3% control transfection, and 2.8% ribozyme transfection.

Another data set concerns N-SMase. Description: TNF-α and Fas ligand induced N-SMase activity in WT and mutant cells. The following applies: for N-SMase activity under cytokine stimulation: sham-transfected cells stimulated with TNF-α and Fas-L, basal 2.7. The procedure:
FIGS. 4A–4B depict the effects of incubation with TNF-α (FIG. 4A) and Fas ligand (FIG. 4B) over time on the activity of N-SMase in mutant and WT cells. Confluent cultures of WT (MG-63) and mutant (CC) cells were incubated with serum free medium with or without TNF-α ([…]) or Fas ligand (1 ng/ml). At the indicated intervals, cells were harvested, centrifuged, and lysed in buffer containing 0.1% Triton™ X-100, 25 mM Tris (pH 7.4), 5 mM EDTA, 1 mM phenylmethylsulfonyl fluoride (PMSF), and 2 μg each of chymostatin, leupeptin, antipain, and pepstatin A. 100 μl of a reaction mixture containing 50 mM Tris (pH 7.4), 5 mM MgCl2, 0.05% Triton™ X-100, 5 mM dithiothreitol (DTT) and 10 nmol [^14C] sphingomyelin (100,000 cpm) was added to 5–10 μl of cell lysate (100 μg protein). The basal activity of N-SMase was 2.7±0.1 nmol/mg protein/hr in MG63 cells and 0.67±0.1 nmol/mg protein/hr in CC cells. These levels were defined as 100% activity. Error bars indicate ±S.D. (N=3).
Tumor necrosis factor alpha (TNF-α) is known to induce programmed cell death through stimulation of sphingomyelinase activity and generation of ceramide. This example describes the ability of the ribozyme directed against N-SMase to inhibit this pathway. The effects of incubation with TNF-α and Fas ligand over time on the activity of N-SMase in mutant and WT cells are shown in FIGS. 4A and 4B, respectively. Confluent cultures of WT (MG-63) and mutant (CC) cells were incubated with serum free medium with or without TNF-α ([…]) or Fas ligand (1 ng/ml), and the activity of N-SMase was determined by measuring the cleavage of [^14C]sphingomyelin. At 0, 10, 20, 30, 40, 50, and 60 minutes, cells were harvested, centrifuged, and lysed in buffer containing 0.1% Triton™ X-100, 25 mM Tris (pH 7.4), 5 mM EDTA, 1 mM phenylmethylsulfonyl fluoride (PMSF), and 2 μg each of chymostatin, leupeptin, antipain, and pepstatin A. 100 μl of a reaction mixture containing 50 mM Tris (pH 7.4), 5 mM MgCl2, 0.05% Triton™ X-100, 5 mM dithiothreitol (DTT) and 10 nmol [^14C]sphingomyelin (100,000 cpm) was added to 5–10 μl of cell lysate (100 μg protein). The basal activity of N-SMase was 2.7±0.1 nmol/mg protein/hr in MG63 cells and 0.67±0.1 nmol/mg protein/hr in CC cells. These levels were defined as 100% activity.

For data set [2], the system named is caspase-3 and cytochrome-C release. Description: Caspase-3 and cytochrome-C release by western analysis and densitometry. The note with it: control (sham-transfected) cells. The procedure: In order to determine a dose-response relationship between the concentration of TNF-α or FasL and apoptosis, western analysis was used to quantitate release of both caspase-3 (FIG. 9) and cytochrome-C (FIG. 10).
Immunoblots for the measurement of cytochrome-C and caspase-3 were carried out after incubation of cells with TNF-α (10 ng/ml) or FasL (1 ng/ml) for 48 hours. Cells were extracted with a buffer (20 mM Hepes pH 7.5, 10 mM KCl, 1.5 mM MgCl2, 5 mM EDTA, 5 mM DTT, 2 mM phenylmethylsulfonylfluoride, 1% NonidetP40, 0.5% sodium deoxycholate, 0.1% SDS, 2 μg/ml leupeptin, 2 μg/ml aprotinin, 0.5 μg/ml benzamindine, and 250 mM sucrose) on ice for 30 minutes. After centrifugation for 10 minutes at 10,000×g, the supernatant was used for western analysis with an antibody for cytochrome-C (Pharmingen, San Diego, Calif.). For assessment of caspase-3, samples were similarly processed in addition to passage through a 21-g needle prior to centrifugation. The western analysis was performed with a rabbit polyclonal IgG antibody to caspase-3 (Santa Cruz, Calif.) raises against an epitope corresponding to amino acids 1–277, representing the full-length precursor form of CPP-32 (caspase-3). For both caspase-3 and cytochrome-C, bands were quantified with densitometric analysis.

The test system of data set [3] is ceramide production by N-SMase. Description: Ceramide level, modified diacylglycerol kinase assay. The note with it: sham-transfected cells stimulated with TNF-α and Fas-L.
In data set [4] the test system is MG-63 cells. In words: Cell viability by trypan blue staining. The following applies: control cells, TNF-α in various concentrations, 24 hours. The protocol:
FIG. 8 depicts the effect of TNF-α on viability of wild type, ribozyme transfected and wild type/mock transfected cells. Cells ([…]) were seeded in 96 well sterile plastic trays. Upon confluence medium was replaced with serum free minimum essential medium and TNF-α (20 ng/ml). After incubation for 24 h at 37° C., viability of cells were determined by Trypan blue staining. The results represent ±S.D. of three experiments.
The population of viable cells was determined using trypan blue staining. Cells (10^4) were seeded in 96 well plates. Twenty-four hours later, the media was replaced with serum-free MEM, and TNF-α in various concentrations was added. After incubation for 24 hours at 37° C., the cells were trypsinized, and viable cells were counted after staining with trypan blue. Values were compared to the original cell count (10^4) and expressed as a percentage.

Regarding `CCCCCCCCCCCCC/C=C/[C@@H](O)[C@H](CO)NC(C)=O` [C2 ceramide], the results for the “Increase in apoptosis compared to untreated cells” value in the data set with MG-63 cells [1] and in the data set on MG-63 cells [1] (listed as C2-ceramide) were “about 2.5 fold” and “greater than two-fold increase”, respectively.

On to “Fas ligand: ligand for Fas/Apo-1 (CD95), used as apoptosis agonist [reference compound]”, for which the “N-SMase activity under cytokine stimulation” value in the data set on N-SMase is reported as 4.0 nmol/mg protein/hr. Also, the “Dose-response of caspase-3 and cytochrome-C release” value in data set [2] is on record as “linear dose-response relationship”. Also, the “Increase in apoptosis assessed by DAPI staining” value in the data set on MG-63 cells [1] is listed as “about 4 fold”. Further, the “Increase in ceramide production” value in data set [3] is “about 2 fold”.

On to “Tumor necrosis factor alpha [TNF-α, reference compound]”, for which the “Decline in population of viable cells” value in the data set on MG-63 cells [4] is given as “prompt decline”. Moreover, the “Peak N-SMase activity relative to unstimulated cells” value in the data set on N-SMase (control transfected clones, 10 minutes after addition of TNF-α) stood at 140%. Further, in the data set on N-SMase, the “N-SMase activity under cytokine stimulation” value worked out at 4.0 nmol/mg protein/hr. In addition, the “Dose-response of caspase-3 and cytochrome-C release” value in data set [2] is listed as “linear dose-response relationship”. In the data set with MG-63 cells [1] (control-transfected cells, TNF-α 20 ng/ml for 24 hours, compared to untransfected cells), this molecule had a DAPI staining of 490%. In addition, the “Increase in apoptosis assessed by DAPI staining” value in the data set with MG-63 cells [1] was “about 4 fold”. Further, the “Increase in ceramide production” value in data set [3] is given as “about 2 fold”.
